# Source: patent US20080221056A1, “Early Detection and Prognosis of Colon Cancers” (JOHNS HOPKINS UNIVERSITY, priority 2007, published 2008)
# System: HCT116 cells
# Assay: Whole transcriptome microarray of gene re-expression in drug-treated CRC cells (11 hypermethylated guide genes)
# Type: cell-based, human
# Description: Cell culture and treatment. HCT116 cells and isogenic genetic knockout derivatives were maintained as previously described (14). For drug treatments, log phase CRC cells were cultured in McCoys 5A media (Invitrogen) containing 10% BCS and 1× penicillin/streptomycin with 5 μM 5aza-deoxycytidine (DAC) (Sigma; stock solution: 1 mM in PBS) for 96 hours, replacing media and DAC every 24 hours. Cell treatment with 300 nM Trichostatin A (Sigma; stock solution: 1.5 mM dissolved in ethanol) was performed for 18 hours. Control cells underwent mock treatment in parallel with addition of equal volume of PBS or ethanol without drugs.
# Microarray analysis. Total RNA was harvested from log phase cells using Triazol (Invitrogen) and the RNeasy kit (Qiagen) according to the manufacturers instructions, including a DNAase digestion step. RNA was quantified using the Nanoprop ND-100 followed by quality assessment with 2100 Bioanalyzer (Agilent Technologies). RNA concentrations for individual samples were greater than 200 ng/ul, with 28s/18s ratios greater than 2.2 and RNA integrity of 10 (10 scored as the highest). Sample amplification and labeling procedures were carried out using the Low RNA Input Fluorescent Linear Amplification Kit (Agilent Technologies) according to the manufacturers instructions. The labeled cRNA was purified using the RNeasy mini kit (Qiagen) and quantified. RNA spike-in controls (Agilent Technologies) were added to RNA samples before amplification. 0.75 microgram of samples labeled with Cy3 or Cy5 were mixed with control targets (Agilent Technologies), assembled on Oligo Microarray, hybridized, and processed according to the Agilent microarray protocol. Scanning was performed with the Agilent G2565BA microarray scanner using settings recommended by Agilent Technologies.
# Data analysis. All arrays were subject to quality checks recommended by the manufacturer. […] The log ratio of red signal to green signal was calculated after background-subtraction and LoEss normalization as implemented in the limma package from Bioconductor (25,26). […]
structure (smiles),measurement,setting,value
"Nc1ncn([C@H]2C[C@H](O)[C@@H](CO)O2)c(=O)n1 [DAC, 5-aza-2′-deoxycytidine]",guide genes increased 1.3 fold or more (total),"5 μM DAC for 96 hours, 11 known hypermethylated, silenced guide genes",73%
same,guide genes increased 2-fold or more,"5 μM DAC for 96 hours, 11 known hypermethylated, silenced guide genes (5 of 11)",45%
"CC(/C=C/C(=O)NO)=C\[C@@H](C)C(=O)c1ccc(N(C)C)cc1 [TSA, trichostatin A]",response of guide gene expression to TSA,"300 nM Trichostatin A for 18 hours, zone = expression increase <1.4 fold",All tested genes remained within the TSA non-responsive zone
